Data published in US20240124503A1, “HETEROAROMATIC PHOSPHONIUM SALTS AND THEIR USE TREATING CANCER” (FLORATEK PHARMA S.A., priority 2021, published 2024).

Experiments:
[1] = test system: U-118; experiment: Cell viability assay, U-118; type: cell-based; details: brain carcinoma cell line U-118
Procedure: Antitumor activity of the compounds and doxorubicin as a positive control was assessed by using the CellTiter-Blue Cell Viability Assay (Promega, #G8082) or CellTiter-Glow® Luminescent Cell Viability assay (Promega #G7572) according to the manufacturer's instructions. The compounds were tested at 5 or 6 concentrations in half-log increments (highest concentration 30 μM or 100 μM) in duplicate or triplicate well conditions.
Tumor cells were grown at 37° C. in a humidified atmosphere with 5% CO2 in RPMI 1640 or DMEM medium, supplemented with 10% (v/v) fetal calf serum and 50 μg/ml gentamicin for up to 20 passages, and were passaged once or twice weekly. Cells were harvested using TrypLE or PBS buffer containing 1 mM EDTA, and the percentage of viable cells was determined using a CASY Model TI cell counter (OMNI Life Science). Cells were harvested from exponential phase cultures, counted and plated in 96 well flat-bottom microtiter plates at a cell density depending on the cell line's growth rate (4,000-20,000 cells/well depending on the cell line's growth rate, up to 60,000 for hematological cancer cell lines) in RPMI 1640 or DMEM medium supplemented with 10% (v/v) fetal calf serum and 50 μg/ml gentamicin (140 μl/well). […] Viability of cells was quantified by the CellTiter-Blue® cell viability assay (Promega G8081) or CellTiter-Glow® Luminescent Cell Viability assay (Promega #G7572). […]

[2] = biological target: T1, KIT(D816V) (Homo sapiens, UniProt P10721, D816V); experiment: KINOMEscan competition binding, KIT(D816V)
T1 construct: purchased Eurofins (KINOMEscan); host or cells: E. coli BL21-derived host (T7 phage) or HEK-293
Procedure: Selected compounds were screened for kinase inhibition using the KINOMEscan™ assay (Eurofins) which is based on a competition binding assay that quantitatively measures the ability of a compound to compete with an immobilized, active-site directed ligand. The assay was performed by combining three components: DNA-tagged kinase; immobilized ligand; and the test compound. The ability of the test compound to compete with the immobilized ligand was measured via quantitative PCR of the DNA tag.
Kinase-tagged T7 phage strains were prepared in an E. coli host derived from the BL21 strain. E. coli were grown to log-phase and infected with T7 phage and incubated with shaking at 32° C. until lysis. The lysates were centrifuged and filtered to remove cell debris. The remaining kinases were produced in HEK-293 cells and subsequently tagged with DNA for qPCR detection. Streptavidin-coated magnetic beads were treated with biotinylated small molecule ligands for 30 minutes at room temperature to generate affinity resins for kinase assays. […] Kds were determined using an 11-point 3-fold compound dilution series with three DMSO control points. […] The kinase concentration in the eluates was measured by qPCR. […]
Binding constants (Kds) were calculated with a standard dose-response curve using the Hill equation: Response=Background+[Signal−Background/1+(Kd^Hill Slope/Dose^Hill Slope)] […]

[3] = test system: bile duct PDX; experiment: Cell viability, bile duct PDX (panel statement); type: cell-based; details: summary of Table 3; read-out: IC50, bile duct PDX growth
Procedure: PDX-derived cell cultures were obtained from tumors explanted from mice and isolated by mechanical and enzymatic dissociation. […] Cells were harvested and seeded in 96-wells plates at a density of 1.25 to 5×10^3 cells/well for cytotoxicity assays. Cells were incubated 48 h at 37° C. prior to addition of test molecules and vehicle (DMSO, 0.1%) at desired final concentrations. Cell viability was assessed before drugs' addition (To) and 5 days after test molecules addition by measuring ATP cell content using CellTiter-Glo® Luminescent Cell Viability Assay (Promega) according to the manufacturer's instructions. Luciferase activity was measured on a luminometer (PerkinElmer® EnVision™). Each concentration of compounds was tested in triplicate.
Viability was calculated as a percentage of ATP value compared to vehicle treated controls.
For PDX primary cell cultures, the tumour tissue was washed with PBS containing antibiotic-antimycotic and non-tumour tissue and necrotic tumour tissues were separated. The tumour tissue was transferred to a new dish and cut into 1˜2 mm^3 fragments, resuspended in RPMI-1640 medium and centrifuged at 1,200 rpm for 6 min at room temperature. The pelleted material was resuspended with 15 mL of Tumour Cell Digestion Solution and incubated at 37° C. for 1 hour with agitation. […]

T1 sequence (P10721 26-976 D816V): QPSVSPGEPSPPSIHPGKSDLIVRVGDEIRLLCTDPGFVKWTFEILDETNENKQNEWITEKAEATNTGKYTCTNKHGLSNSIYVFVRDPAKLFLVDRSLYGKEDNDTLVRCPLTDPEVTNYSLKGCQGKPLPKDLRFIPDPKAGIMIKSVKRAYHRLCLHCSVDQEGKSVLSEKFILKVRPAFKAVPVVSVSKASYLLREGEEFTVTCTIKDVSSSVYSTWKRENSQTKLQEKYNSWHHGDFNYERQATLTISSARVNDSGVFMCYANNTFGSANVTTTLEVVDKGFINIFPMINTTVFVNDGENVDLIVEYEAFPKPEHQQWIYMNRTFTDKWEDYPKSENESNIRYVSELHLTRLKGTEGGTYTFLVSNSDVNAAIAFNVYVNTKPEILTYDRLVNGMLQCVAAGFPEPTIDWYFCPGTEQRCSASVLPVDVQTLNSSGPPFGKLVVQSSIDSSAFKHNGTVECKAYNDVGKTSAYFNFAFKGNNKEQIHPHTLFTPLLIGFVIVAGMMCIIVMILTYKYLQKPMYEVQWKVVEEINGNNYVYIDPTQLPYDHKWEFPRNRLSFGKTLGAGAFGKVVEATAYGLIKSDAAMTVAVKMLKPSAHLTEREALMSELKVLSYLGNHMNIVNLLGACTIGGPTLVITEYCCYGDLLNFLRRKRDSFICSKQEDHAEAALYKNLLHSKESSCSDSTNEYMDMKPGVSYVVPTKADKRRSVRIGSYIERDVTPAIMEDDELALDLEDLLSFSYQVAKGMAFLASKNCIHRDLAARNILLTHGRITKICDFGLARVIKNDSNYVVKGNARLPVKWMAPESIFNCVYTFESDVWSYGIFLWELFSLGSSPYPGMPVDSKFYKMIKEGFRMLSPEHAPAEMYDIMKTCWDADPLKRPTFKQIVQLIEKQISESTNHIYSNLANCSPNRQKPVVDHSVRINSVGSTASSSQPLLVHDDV

- Kd [2]: 0.93 µM
SMILES: COc1c(O)ccc2c(=O)c(O)c(-c3ccc(CCCC[P+](c4ccccc4)(c4ccccc4)c4ccccc4)cc3)oc12 [SND190, (4-(4-(3,7-Dihydroxy-8-methoxy-4-oxo-4H1-chromen-2-yl)phenyl)butyl)triphenylphosphonium bromide]
- IC50 [1]: 9.4 µM
- IC50 [3]: < 10 µM
